Measurements taken from US10696615B2, “Prenylated hydroxystilbenes” (The University of Sydney, priority 2011, dated 2020).

Experiments:
HOP-92 = assay: NCI in vitro cancer screen, Non-Small Cell Lung Cancer; assay type: cell-based, human; details: HOP-92
TK-10 = assay: NCI in vitro cancer screen, Renal Cancer; assay type: cell-based, human; details: TK-10
OVCAR-4 = assay: NCI in vitro cancer screen, Ovarian Cancer; assay type: cell-based, human; details: OVCAR-4
HL-60 (TB) = assay: NCI in vitro cancer screen, Leukemia; assay type: cell-based, human; details: HL-60 (TB)
MALME-3M = assay: NCI in vitro cancer screen, Melanoma; assay type: cell-based, human
SF-539 = assay: NCI in vitro cancer screen, CNS Cancer; assay type: cell-based; details: SF-539
CAKI-1 = assay: NCI in vitro cancer screen, Renal Cancer; assay type: cell-based, human; details: CAKI-1
OVCAR-5 = assay: NCI in vitro cancer screen, Ovarian Cancer; assay type: cell-based, human; details: OVCAR-5
KM12 = assay: NCI in vitro cancer screen, Colon Cancer; assay type: cell-based, human; details: KM12
NCI-H460 = assay: NCI in vitro cancer screen, Non-Small Cell Lung Cancer; assay type: cell-based, human; details: NCI-H460
MOLT-4 = assay: NCI in vitro cancer screen, Leukemia; assay type: cell-based, human; details: MOLT-4
T-47D = assay: NCI in vitro cancer screen, Breast Cancer; assay type: cell-based, human
HT29 = assay: NCI in vitro cancer screen, Colon Cancer; assay type: cell-based, human; details: HT29
HCT-15 = assay: NCI in vitro cancer screen, Colon Cancer; assay type: cell-based, human; details: HCT-15
LOX IMVI = assay: NCI in vitro cancer screen, Melanoma; assay type: cell-based, human
SF-268 = assay: NCI in vitro cancer screen, CNS Cancer; assay type: cell-based, human; details: SF-268
SN12C = assay: NCI in vitro cancer screen, Renal Cancer; assay type: cell-based, human
PC-3 = assay: NCI in vitro cancer screen, Prostate Cancer; assay type: cell-based, human; details: PC-3
SK-MEL-2 = assay: NCI in vitro cancer screen, Melanoma; assay type: cell-based, human; details: SK-MEL-2
A498 = assay: NCI in vitro cancer screen, Renal Cancer; assay type: cell-based, human; details: A498
NCI-H23 = assay: NCI in vitro cancer screen, Non-Small Cell Lung Cancer; assay type: cell-based, human; details: NCI-H23
ADR-RES (NCI/ADR-RES) = assay: NCI in vitro cancer screen, Ovarian Cancer; assay type: cell-based, human
HOP-62 = assay: NCI in vitro cancer screen, Non-Small Cell Lung Cancer; assay type: cell-based, human; details: HOP-62
COLO 205 = assay: NCI in vitro cancer screen, Colon Cancer; assay type: cell-based, human; details: COLO 205
UACC-62 = assay: NCI in vitro cancer screen, Melanoma; assay type: cell-based, human; details: UACC-62
UO-31 = assay: NCI in vitro cancer screen, Renal Cancer; assay type: cell-based, human; details: UO-31
U251 = assay: NCI in vitro cancer screen, CNS Cancer; assay type: cell-based, human; details: U251
RPMI-8226 = assay: NCI in vitro cancer screen, Leukemia; assay type: cell-based, human; details: RPMI-8226
[1] = Homo sapiens, read-out: LC50 (the source's name)

COc1cc(/C=C/c2cc(O)c(CC=C(C)C)c(O)c2)ccc1O [USYDS13, (E)-4-(3-methyl-2-buten-1-yl)-3,4′,5-trihydroxy-3′-methoxystilbene]
TGI (HOP-92): 30.5 µM
GI50 (HOP-92; Homo sapiens): 5.96 µM
CC50 (HOP-92; [1]): > 100 µM
GI50 (TK-10; Homo sapiens): 6.98 µM
LC50 (TK-10; Homo sapiens): > 100 µM
TGI (TK-10): 31.4 µM
GI50 (OVCAR-4; Homo sapiens): 9.68 µM
CC50 (OVCAR-4; [1]): > 100 µM
TGI (OVCAR-4): 74.8 µM
TGI (HL-60 (TB)): 17.1 µM
GI50 (HL-60 (TB); Homo sapiens): 2.55 µM
CC50 (HL-60 (TB); [1]): > 100 µM
GI50 (MALME-3M; Homo sapiens, Malme-3M): 5.53 µM
CC50 (MALME-3M; Homo sapiens, Malme-3M, read-out: LC50 (the source's name)): > 100 µM
TGI (MALME-3M; MALME-3M): 32.1 µM
GI50 (SF-539; Homo sapiens): 7.32 µM
CC50 (SF-539; [1]): > 100 µM
TGI (SF-539): 29.9 µM
TGI (CAKI-1): >100 µM
GI50 (CAKI-1; Homo sapiens): 5.9 µM
CC50 (CAKI-1; [1]): > 100 µM
GI50 (OVCAR-5; Homo sapiens): 13.9 µM
CC50 (OVCAR-5; [1]): > 100 µM
TGI (OVCAR-5): 79.3 µM
GI50 (KM12; Homo sapiens): 3.15 µM
CC50 (KM12; [1]): 49 µM
TGI (KM12): 16.1 µM
GI50 (NCI-H460; Homo sapiens): 3.09 µM
CC50 (NCI-H460; [1]): > 100 µM
TGI (NCI-H460): 15.6 µM
GI50 (MOLT-4; Homo sapiens): 2.95 µM
CC50 (MOLT-4; [1]): > 100 µM
TGI (MOLT-4): 13.7 µM
TGI (T-47D): 14.7 µM
GI50 (T-47D; Homo sapiens, T47D): 2.92 µM
CC50 (T-47D; Homo sapiens, T47D, read-out: LC50 (the source's name)): 70.5 µM
TGI (HT29): 36.9 µM
GI50 (HT29; Homo sapiens, HT-29): 17.8 µM
CC50 (HT29; Homo sapiens, HT-29, read-out: LC50 (the source's name)): 76.8 µM
TGI (HCT-15): 20.5 µM
GI50 (HCT-15; Homo sapiens): 4.25 µM
CC50 (HCT-15; [1]): 84.5 µM
TGI (LOX IMVI): 20.2 µM
GI50 (LOX IMVI; Homo sapiens): 4.48 µM
CC50 (LOX IMVI; [1]): 80 µM
GI50 (SF-268; Homo sapiens): 6.17 µM
CC50 (SF-268; [1]): > 100 µM
TGI (SF-268): 32.9 µM
TGI (SN12C): >100 µM
GI50 (SN12C; Homo sapiens): 7.16 µM
CC50 (SN12C; [1]): > 100 µM
GI50 (PC-3; Homo sapiens): 6.36 µM
CC50 (PC-3; [1]): > 100 µM
TGI (PC-3): >100 µM
GI50 (SK-MEL-2; Homo sapiens): 3.09 µM
LC50 (SK-MEL-2; Homo sapiens): 40.2 µM
TGI (SK-MEL-2): 9.37 µM
TGI (A498): 21.0 µM
GI50 (A498; Homo sapiens): 3.88 µM
CC50 (A498; [1]): 63.5 µM
GI50 (NCI-H23; Homo sapiens): 5.66 µM
LC50 (NCI-H23; Homo sapiens): > 100 µM
TGI (NCI-H23): 28.0 µM
TGI (ADR-RES (NCI/ADR-RES); ADR-RES): >100 µM
GI50 (ADR-RES (NCI/ADR-RES); Homo sapiens, NCI/ADR-RES): 4.41 µM
CC50 (ADR-RES (NCI/ADR-RES); Homo sapiens, NCI/ADR-RES, read-out: LC50 (the source's name)): > 100 µM
TGI (HOP-62): 20.4 µM
GI50 (HOP-62; Homo sapiens): 5.66 µM
CC50 (HOP-62; [1]): 53.7 µM
TGI (COLO 205): 28.9 µM
GI50 (COLO 205; Homo sapiens): 15.6 µM
CC50 (COLO 205; [1]): 53.8 µM
GI50 (UACC-62; Homo sapiens): 5.3 µM
CC50 (UACC-62; [1]): 58.8 µM
TGI (UACC-62): 19.7 µM
GI50 (UO-31; Homo sapiens): 4.16 µM
CC50 (UO-31; [1]): > 100 µM
TGI (UO-31): 38.1 µM
GI50 (U251; Homo sapiens, U-251): 5.47 µM
CC50 (U251; Homo sapiens, U-251, read-out: LC50 (the source's name)): 57.6 µM
TGI (U251): 20.7 µM
GI50 (RPMI-8226; Homo sapiens): 9.05 µM
CC50 (RPMI-8226; [1]): > 100 µM
TGI (RPMI-8226): 51.6 µM
